Reference: patent US20240208992A1, “MACROCYCLES AS CFTR MODULATORS” (Idorsia Pharmaceuticals Ltd, priority 2021, published 2024)

Target: human F508del-CFTR (Homo sapiens, UniProt P13569, DEL508-508)
Assay: F508del-CFTR cell surface expression (corrector activity), DiscoveRx ß-galactosidase complementation chemiluminescence assay in recombinant U2OS cell line;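 also: U2OS cells co-expressing ProLink-tagged F508del-CFTR and a membrane-anchored enzyme acceptor, where more surface CFTR restores β-galactosidase activity measured by chemiluminescence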
Conditions: for EC50: EC50, F508del-CFTR cell surface expression; for Emax: U2OS
[1] = U2OS cells, 16h compound incubation, geomean values
[2] = in relation to Emax of corrector lumacaftor (=100%), arithmetic mean values
[3] = U2OS cells, 16h compound incubation, geomean of several measurements
[4] = in relation to the Emax of the corrector lumacaftor (=100%), U2OS cells, 16h compound incubation, arithmetic mean
[5] = U2OS cell line, 16h compound incubation, geomean values
[6] = in relation to the Emax of the corrector lumacaftor (=100%), U2OS cell line, 16h compound incubation, arithmetic mean values

Sequence of human F508del-CFTR (P13569 with tags, fused parts or gaps DEL508-508): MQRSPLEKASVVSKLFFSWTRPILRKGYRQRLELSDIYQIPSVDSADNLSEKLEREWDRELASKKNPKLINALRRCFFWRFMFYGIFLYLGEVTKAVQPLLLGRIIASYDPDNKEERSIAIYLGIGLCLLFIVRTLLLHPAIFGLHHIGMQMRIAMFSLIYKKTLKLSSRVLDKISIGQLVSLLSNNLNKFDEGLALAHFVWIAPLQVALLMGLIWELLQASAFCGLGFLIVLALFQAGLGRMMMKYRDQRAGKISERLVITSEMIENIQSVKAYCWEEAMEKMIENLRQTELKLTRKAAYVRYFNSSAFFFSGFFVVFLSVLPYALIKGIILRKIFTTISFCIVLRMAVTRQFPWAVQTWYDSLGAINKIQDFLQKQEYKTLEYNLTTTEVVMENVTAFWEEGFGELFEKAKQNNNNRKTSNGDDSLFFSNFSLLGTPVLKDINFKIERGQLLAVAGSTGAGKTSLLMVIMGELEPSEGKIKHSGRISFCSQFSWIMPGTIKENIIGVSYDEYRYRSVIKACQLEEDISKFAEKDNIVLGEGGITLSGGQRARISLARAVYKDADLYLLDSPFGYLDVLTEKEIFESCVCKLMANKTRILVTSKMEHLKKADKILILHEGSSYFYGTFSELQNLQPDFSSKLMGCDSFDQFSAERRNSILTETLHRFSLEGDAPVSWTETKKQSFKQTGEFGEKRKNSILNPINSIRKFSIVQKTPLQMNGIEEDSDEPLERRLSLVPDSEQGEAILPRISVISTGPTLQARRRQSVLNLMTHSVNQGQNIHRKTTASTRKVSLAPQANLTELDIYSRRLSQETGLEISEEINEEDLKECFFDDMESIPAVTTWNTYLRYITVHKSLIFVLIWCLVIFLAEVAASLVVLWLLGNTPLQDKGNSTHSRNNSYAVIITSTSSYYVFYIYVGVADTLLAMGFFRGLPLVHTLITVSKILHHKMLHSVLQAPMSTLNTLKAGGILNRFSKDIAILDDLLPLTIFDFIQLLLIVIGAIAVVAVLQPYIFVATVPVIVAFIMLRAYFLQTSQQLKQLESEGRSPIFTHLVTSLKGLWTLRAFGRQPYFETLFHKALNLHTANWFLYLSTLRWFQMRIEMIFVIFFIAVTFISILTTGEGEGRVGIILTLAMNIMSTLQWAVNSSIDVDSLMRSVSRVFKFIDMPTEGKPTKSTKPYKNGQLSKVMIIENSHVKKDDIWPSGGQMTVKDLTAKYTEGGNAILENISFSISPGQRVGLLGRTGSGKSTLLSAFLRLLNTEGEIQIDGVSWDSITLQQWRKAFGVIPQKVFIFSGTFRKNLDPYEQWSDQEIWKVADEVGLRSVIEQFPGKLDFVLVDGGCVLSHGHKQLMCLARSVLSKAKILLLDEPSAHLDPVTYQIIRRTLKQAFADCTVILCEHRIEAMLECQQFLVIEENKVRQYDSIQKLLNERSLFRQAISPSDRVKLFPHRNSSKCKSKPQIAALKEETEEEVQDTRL

Question: How did the EC50 [1] turn out when COc1cccc(CCNC(=O)[C@@H]2CC(=O)N(C)[C@@H](CC(C)C)C(=O)N3CCOC[C@@H]3C(=O)N[C@H](Cc3ccccc3)COc3cnc4ccccc4c3C(=O)N2)c1 [Example 412, (9S,13S,19aR,22R)-22-benzyl-13-isobutyl-N-(3-methoxyphenethyl)-12-methyl-7,11,14,20-tetraoxo-7,8,9,10,11,12,13,14,16,17,19,19a,20,21,22,23-hexadecahydro-[1,4]oxazino[3′,4′:6,7][1]oxa[4,7,10,14]tetraazacycloheptadecino[17,16-c]quinoline-9-carboxamide] was run?
Answer: 377 nM

Question: What about the Emax [2] of the same molecule?
Answer: 291%

Question: How did the EC50 [3] turn out when CC(C)C[C@H]1C(=O)N2CCCC[C@@H]2C(=O)N[C@H](Cc2ccccc2)COc2ccc3ncc(F)cc3c2C(=O)N[C@H](C(=O)NCCn2nnc(C3CC3)n2)CC(=O)N1C [Example 829, (9S,13S,19aR,22R)-22-benzyl-N-(2-(5-cyclopropyl-2H-tetrazol-2-yl)ethyl)-5-fluoro-13-isobutyl-12-methyl-7,11,14,20-tetraoxo-7,8,9,10,11,12,13,14,17,18,19,19a,20,21,22,23-hexadecahydro-16H-pyrido[2′,1′:6,7][1]oxa[4,7,10,14]tetraazacycloheptadecino[16,17-f]quinoline-9-carboxamide] was run?
Answer: 142 nM

Question: What about the Emax [4] of the same molecule?
Answer: 320%

Question: With CC(C)C[C@H]1C(=O)N(C)[C@H](Cc2nc(C(F)(F)F)no2)C(=O)N[C@H](Cc2ccccc2)COc2ccc3ncc(F)cc3c2C(=O)N[C@H](C(=O)NCCCOC(F)F)CC(=O)N1C [Example 944, (3S,7S,10R,13R)-13-benzyl-N-(3-(difluoromethoxy)propyl)-20-fluoro-7-isobutyl-6,9-dimethyl-1,5,8,11-tetraoxo-10-((3-(trifluoromethyl)-1,2,4-oxadiazol-5-yl)methyl)-1,2,3,4,5,6,7,8,9,10,11,12,13,14-tetradecahydro-[1]oxa[4,7,10,14]tetraazacycloheptadecino[16,17-f]quinoline-3-carboxamide] as the molecule, how does the EC50 [3] read?
Answer: 77 nM

Question: And the Emax [4]?
Answer: 336%

Question: With CC(C)C[C@H]1C(=O)N2CCCC[C@@H]2C(=O)N[C@H](Cc2ccccc2)COc2cnc3c(F)cccc3c2C(=O)N[C@H](C(=O)NCCc2cc(C3CC3)no2)CC(=O)N1C [Example 499, (9S,13S,19aR,22R)-22-benzyl-N-(2-(3-cyclopropylisoxazol-5-yl)ethyl)-3-fluoro-13-isobutyl-12-methyl-7,11,14,20-tetraoxo-7,8,9,10,11,12,13,14,17,18,19,19a,20,21,22,23-hexadecahydro-16H-pyrido[2′,11:6,7][1]oxa[4,7,10,14]tetraazacycloheptadecino[17,16-c]quinoline-9-carboxamide] as the molecule, how does the EC50 [1] read?
Answer: 189 nM

Question: What about the Emax [2] of the same molecule?
Answer: 321%

Question: Which results are given for COc1cccc(CCNC(=O)[C@@H]2CC(=O)N(C)[C@@H](CC(C)C)C(=O)N3CCN([S@](=O)(=NC(=O)OC(C)(C)C)c4ccccc4)C[C@@H]3C(=O)N[C@H](Cc3ccccc3)COc3ccc4ccccc4c3C(=O)N2)c1 [Example 757, tert-Butyl (((4aR,7R,18S,22S)-7-benzyl-22-isobutyl-18-((3-methoxyphenethyl)carbamoyl)-21-methyl-5,16,20,23-tetraoxo-1,2,4,4a,5,6,7,8,16,17,18,19,20,21,22,23-hexadecahydro-3H-naphtho[1,2-p]pyrazino[2,1-f][1]oxa[4,7,10,14]tetraazacycloheptadecin-3-yl)(oxo)(phenyl)-16-sulfaneylidene)carbamate]?
Answer: EC50 [1]: 145 nM; Emax [2]: 280%

Question: With Cc1cc(CCNC(=O)[C@@H]2CC(=O)N(C)[C@@H](CC(C)C)C(=O)N(C)C3(CCC3)C(=O)N[C@H](Cc3ccccc3)COc3cnc4ccc(F)cc4c3C(=O)N2)on1 [Example 690, (3′S,7′S,13′R)-13′-benzyl-20′-fluoro-7′-isobutyl-6′,9′-dimethyl-N-(2-(3-methylisoxazol-5-yl)ethyl)-1′,5′,8′,11′-tetraoxo-2′,3′,4′,5′,6′,7′,8′,9′,11′,12′,13′,14′-dodecahydro-1′H-spiro[cyclobutane-1,10′-[1]oxa[4,7,10,14]tetraazacycloheptadecino[17,16-c]quinoline]-3′-carboxamide] as the molecule, how does the EC50 [1] read?
Answer: 478 nM

Question: What about the Emax [2] of the same molecule?
Answer: 401%

Question: Which EC50 [5] does the source give for CC(C)C[C@H]1C(=O)N2CCCC[C@@H]2C(=O)N[C@H](Cc2ccccc2)COc2cnc3ccccc3c2C(=O)N[C@H](C(=O)NCCc2cc(C3CC3)on2)CC(=O)N1C [Example 105, (9S,13S,19aR,22R)-22-benzyl-N-(2-(5-cyclopropylisoxazol-3-yl)ethyl)-13-isobutyl-12-methyl-7,11,14,20-tetraoxo-7,8,9,10,11,12,13,14,17,18,19,19a,20,21,22,23-hexadecahydro-16H-pyrido[2′,1′:6,7][1]oxa[4,7,10,14]tetraazacycloheptadecino[17,16-c]quinoline-9-carboxamide] here?
Answer: 173 nM

Question: And the Emax [6]?
Answer: 351%

Question: What does the source list for COC(=O)N1CCN2C(=O)[C@H](CC(C)C)N(C)C(=O)C[C@@H](C(=O)NCCc3cccc(OC)c3)NC(=O)c3c(ccc4ccccc34)OC[C@@H](Cc3ccccc3)NC(=O)[C@H]2C1 [Example 754, Methyl (4aR,7R,18S,22S)-7-benzyl-22-isobutyl-18-((3-methoxyphenethyl)carbamoyl)-21-methyl-5,16,20,23-tetraoxo-1,2,4,4a,5,6,7,8,16,17,18,19,20,21,22,23-hexadecahydro-3H-naphtho[1,2-p]pyrazino[2,1-f][1]oxa[4,7,10,14]tetraazacycloheptadecine-3-carboxylate]?
Answer: EC50 [1]: 219 nM; Emax [2]: 279%

Question: Which results are given for COc1cccc(CCNC(=O)[C@@H]2CC(=O)N(C)[C@@H](CC(C)C)C(=O)N(C)CC(=O)N[C@H](Cc3ccccc3)COc3ccc4ncccc4c3C(=O)N2)c1 [Example 441, (3S,7S,13R)-13-benzyl-7-isobutyl-N-(3-methoxyphenethyl)-6,9-dimethyl-1,5,8,11-tetraoxo-1,2,3,4,5,6,7,8,9,10,11,12,13,14-tetradecahydro-[1]oxa[4,7,10,14]tetraazacycloheptadecino[16,17-f]quinoline-3-carboxamide]?
Answer: EC50 [1]: 815 nM; Emax [2]: 326%

Question: For CC(C)C[C@H]1C(=O)N(C)C2(CC2)C(=O)N[C@H](Cc2ccccc2)COc2ncc3ccccc3c2C(=O)N[C@H](C(=O)NCCc2cc(C3CC3)no2)CC(=O)N1C [Example 556, (3′S,7′S,13′R)-13′-benzyl-N-(2-(3-cyclopropylisoxazol-5-yl)ethyl)-7′-isobutyl-6′,9′-dimethyl-1′,5′,8′,11′-tetraoxo-2′,3′,4′,5′,6′,7′,8′,9′,11′,12′,13′,14′-dodecahydro-1′H-spiro[cyclopropane-1,10′-[1]oxa[4,7,10,14]tetraazacycloheptadecino[17,16-c]isoquinoline]-3′-carboxamide], which EC50 [1] is on record?
Answer: 327 nM

Question: And the Emax [2]?
Answer: 322%

Question: What does the source list for COc1nccc2c1C(=O)N[C@H](C(=O)NCCc1ccc3c(c1)OCO3)CC(=O)N(C)[C@@H](CC(C)C)C(=O)N(CCC1CCCCC1)CC(=O)N[C@H](Cc1ccccc1)CO2 [Example 281, (3R,9S,13S)-N-(2-(benzo[d][1,3]dioxol-5-yl)ethyl)-3-benzyl-7-(2-cyclohexylethyl)-9-isobutyl-16-methoxy-10-methyl-5,8,11,15-tetraoxo-2,3,4,5,6,7,8,9,10,11,12,13,14,15-tetradecahydropyrido[3,4-p][1]oxa[4,7,10,14]tetraazacycloheptadecine-13-carboxamide]?
Answer: EC50 [5]: 110 nM; Emax [6]: 361%

Question: How did the EC50 [5] turn out when COc1cccc(CCNC(=O)[C@@H]2CC(=O)N(C)[C@@H](CC(C)C)C(=O)N(CCC3CCCCC3)CC(=O)N[C@H](Cc3ccccc3)COc3ccnc(OC)c3C(=O)N2)c1 [Example 282, (3R,9S,13S)-3-benzyl-7-(2-cyclohexylethyl)-9-isobutyl-16-methoxy-N-(3-methoxyphenethyl)-10-methyl-5,8,11,15-tetraoxo-2,3,4,5,6,7,8,9,10,11,12,13,14,15-tetradecahydropyrido[3,4-p][1]oxa[4,7,10,14]tetraazacycloheptadecine-13-carboxamide] was run?
Answer: 114 nM

Question: What about the Emax [6] of the same molecule?
Answer: 360%

Question: Which EC50 [3] does the source give for Cc1cc(CCNC(=O)[C@@H]2CC(=O)N(C)[C@@H](CC(C)C)C(=O)N3CCN(c4ccc(F)cn4)C[C@@H]3C(=O)N[C@H](Cc3ccccc3)COc3cnc4ccccc4c3C(=O)N2)on1 [Example 852, (9S,13S,19aR,22R)-22-benzyl-18-(5-fluoropyridin-2-yl)-13-isobutyl-12-methyl-N-(2-(3-methylisoxazol-5-yl)ethyl)-7,11,14,20-tetraoxo-7,8,9,10,11,12,13,14,17,18,19,19a,20,21,22,23-hexadecahydro-16H-pyrazino[2′,11:6,7][1]oxa[4,7,10,14]tetraazacycloheptadecino[17,16-c]quinoline-9-carboxamide] here?
Answer: 163 nM

Question: What about the Emax [4] of the same molecule?
Answer: 249%

Question: Which results are given for COc1cccc(CCNC(=O)[C@@H]2CC(=O)N(C)[C@@H](CC(C)C)C(=O)N3CCN(c4ccc(F)cn4)C[C@@H]3C(=O)N[C@H](Cc3ccccc3)COc3cnc4ccccc4c3C(=O)N2)c1 [Example 853, (9S,13S,19aR,22R)-22-benzyl-18-(5-fluoropyridin-2-yl)-13-isobutyl-N-(3-methoxyphenethyl)-12-methyl-7,11,14,20-tetraoxo-7,8,9,10,11,12,13,14,17,18,19,19a,20,21,22,23-hexadecahydro-16H-pyrazino[2′,1′:6,7][1]oxa[4,7,10,14]tetraazacycloheptadecino[17,16-c]quinoline-9-carboxamide]?
Answer: EC50 [3]: 92 nM; Emax [4]: 322%

Question: How did the EC50 [5] turn out when CC(C)C[C@H]1C(=O)N(CCC2CCOCC2)CC(=O)N[C@H](Cc2ccccc2)COc2cc3c(cc2C(=O)N[C@H](C(=O)NCCc2ccc4c(c2)OCO4)CC(=O)N1C)OCO3 [Example 154, (7R,13S,17S)-N-(2-(benzo[d][1,3]dioxol-5-yl)ethyl)-7-benzyl-13-isobutyl-14-methyl-9,12,15,19-tetraoxo-11-(2-(tetrahydro-2H-pyran-4-yl)ethyl)-6,7,8,9,10,11,12,13,14,15,16,17,18,19-tetradecahydro-[1,3]dioxolo[4′,5′:4,5]benzo[1,2-p][1]oxa[4,7,10,14]tetraazacycloheptadecine-17-carboxamide] was run?
Answer: 398 nM

Question: And the Emax [6]?
Answer: 102%
